Experimental data as given in patent US20220354862A1, “LIPOSOME DELIVERY OF PSYCHEDELICS” (Mind Medicine, Inc., priority 2021, published 2022).

Key:
[1] = Pharmacokinetic evaluation in rats after bolus IV administration (noribogaine in plasma); assay type: in vivo, Sprague Dawley rats
Protocol: Pharmacokinetic Evaluation of the Tissue Distribution of Two Test Articles (Noribogaine and BTLS (Brain-Targeted Liposomes)-Noribogaine) in Rats
This study was conducted in adult male Sprague Dawley rats, weighing 250-275 g on arrival. Animals were housed according to the vivarium SOP on a 12-hr light cycle with food and water ad libitum.
72 rats were divided into 12 groups of 6. Test articles were dosed at 10 mg/kg of active substance (generic and liposomal formulation) and administered IV through the tail vein as a bolus. Animals were sampled for 24 hours after administration. Terminal blood and tissue samples (brain, heart, kidney, liver) were collected at 0.08, 0.25, 1, 2, 4 and 8 hours after the dose. The study compared the two groups, noribogaine and BTLS-noribogaine formulation. Concentration of noribogaine in the plasma and tissues was measured ex vivo and pharmacokinetic analysis was performed.

[2] = target: hERG potassium channels (Homo sapiens, UniProt Q12809); conditions: high doses; cited from earlier work
Sequence of hERG potassium channels (Q12809 whole entry): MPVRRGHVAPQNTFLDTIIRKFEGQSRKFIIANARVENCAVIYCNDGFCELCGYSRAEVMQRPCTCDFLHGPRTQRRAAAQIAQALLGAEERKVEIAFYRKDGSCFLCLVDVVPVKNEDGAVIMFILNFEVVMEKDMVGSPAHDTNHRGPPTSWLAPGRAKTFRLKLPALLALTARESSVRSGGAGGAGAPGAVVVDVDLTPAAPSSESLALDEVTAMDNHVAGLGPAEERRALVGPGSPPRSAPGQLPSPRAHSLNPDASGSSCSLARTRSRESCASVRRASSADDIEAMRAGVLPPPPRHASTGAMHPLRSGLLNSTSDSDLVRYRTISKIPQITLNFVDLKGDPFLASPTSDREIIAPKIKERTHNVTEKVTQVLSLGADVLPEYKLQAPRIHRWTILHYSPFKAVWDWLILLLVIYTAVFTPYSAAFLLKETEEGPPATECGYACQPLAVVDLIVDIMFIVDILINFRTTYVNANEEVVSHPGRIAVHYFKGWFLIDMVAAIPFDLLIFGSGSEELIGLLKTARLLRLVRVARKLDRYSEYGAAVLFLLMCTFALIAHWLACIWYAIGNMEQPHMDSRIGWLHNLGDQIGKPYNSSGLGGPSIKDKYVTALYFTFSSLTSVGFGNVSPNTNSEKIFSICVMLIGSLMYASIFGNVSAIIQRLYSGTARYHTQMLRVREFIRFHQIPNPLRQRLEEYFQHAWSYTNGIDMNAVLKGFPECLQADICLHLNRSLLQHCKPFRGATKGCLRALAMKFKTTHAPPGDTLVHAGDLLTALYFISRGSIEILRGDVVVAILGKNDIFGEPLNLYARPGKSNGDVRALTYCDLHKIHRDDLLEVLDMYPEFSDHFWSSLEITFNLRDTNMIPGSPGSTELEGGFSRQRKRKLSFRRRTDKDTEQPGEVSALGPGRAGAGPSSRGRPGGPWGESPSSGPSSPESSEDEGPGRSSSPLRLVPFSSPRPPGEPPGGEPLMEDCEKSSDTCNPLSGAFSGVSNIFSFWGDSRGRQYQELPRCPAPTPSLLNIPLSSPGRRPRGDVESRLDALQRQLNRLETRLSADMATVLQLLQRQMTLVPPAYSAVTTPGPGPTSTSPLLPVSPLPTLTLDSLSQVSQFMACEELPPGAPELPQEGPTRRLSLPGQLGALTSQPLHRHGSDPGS

[3] = test system: heroin addict; conditions: oral, cited from earlier work

Compound	Cl ([1]; rat)	Vss ([1]; rat)	Cmax ([1]; rat plasma)	T_half ([1]; rat plasma)	Tmax ([1]; rat plasma)	Cardiotoxicity: long QT syndrome / hERG block [2]	Treatments effective, share of cases ([3]; 6 mg/kg to 19 mg/kg)	Duration of effect of a series of 4 treatments ([3]; series of 4 treatments)	Duration of effect of a single treatment ([3]; single treatment)	minimum effective dose [3]
CC[C@H]1C[C@H]2C[C@H]3c4[nH]c5ccc(O)cc5c4CCN(C2)[C@@H]13 [NOR, noribogaine]	0.0064 mL/h	0.0119 mL	223.6 ng/mL	1.4558 h	30 min	cause long QT syndrome by blocking hERG potassium channels	–	–	–	–
ibogaine	–	–	–	–	–	–	71%	approximately 3 years	about 6 months	400 mgs
